Assay results published in patent publication US11542259B2, “Compounds for the treatment of kinase-dependent disorders” (Exelixis, Inc., priority 2018, dated 2023).

Assays:
[1] = molecular target: Human Met (residues R974-S1390 with A1209G and V1290L) (Homo sapiens, UniProt P08581); assay: Human Met kinase assay (33P radiometric, KinaseProfiler); assay type: biochemical; conditions: 10 μM ATP, read-out: c-Met IC50
[2] = molecular target: Human Mer (residues R557-E882 with H628Q and R794A) (Homo sapiens (Human), UniProt Q12866); assay: Human Mer kinase assay (33P radiometric, KinaseProfiler); assay type: biochemical; conditions: 10 μM ATP
Human Mer (residues R557-E882 with H628Q and R794A), sequence (Q12866 557-882, stated change not applied): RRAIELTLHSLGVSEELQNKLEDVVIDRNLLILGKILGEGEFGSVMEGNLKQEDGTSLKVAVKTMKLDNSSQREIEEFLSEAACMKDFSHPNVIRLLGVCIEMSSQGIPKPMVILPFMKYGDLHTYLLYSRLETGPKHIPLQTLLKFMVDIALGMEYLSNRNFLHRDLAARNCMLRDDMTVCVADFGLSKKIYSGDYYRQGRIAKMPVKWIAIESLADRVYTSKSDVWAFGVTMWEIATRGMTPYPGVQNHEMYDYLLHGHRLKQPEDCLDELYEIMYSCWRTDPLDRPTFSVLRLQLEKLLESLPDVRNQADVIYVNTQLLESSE

Met = Met (Homo sapiens (Human), UniProt P08581); assay: Met autophosphorylation ELISA in PC-3 cells; assay type: cell-based; conditions: cellular, HGF stimulated, read-out: c-Met IC50
Met, sequence (P08581 25-1390): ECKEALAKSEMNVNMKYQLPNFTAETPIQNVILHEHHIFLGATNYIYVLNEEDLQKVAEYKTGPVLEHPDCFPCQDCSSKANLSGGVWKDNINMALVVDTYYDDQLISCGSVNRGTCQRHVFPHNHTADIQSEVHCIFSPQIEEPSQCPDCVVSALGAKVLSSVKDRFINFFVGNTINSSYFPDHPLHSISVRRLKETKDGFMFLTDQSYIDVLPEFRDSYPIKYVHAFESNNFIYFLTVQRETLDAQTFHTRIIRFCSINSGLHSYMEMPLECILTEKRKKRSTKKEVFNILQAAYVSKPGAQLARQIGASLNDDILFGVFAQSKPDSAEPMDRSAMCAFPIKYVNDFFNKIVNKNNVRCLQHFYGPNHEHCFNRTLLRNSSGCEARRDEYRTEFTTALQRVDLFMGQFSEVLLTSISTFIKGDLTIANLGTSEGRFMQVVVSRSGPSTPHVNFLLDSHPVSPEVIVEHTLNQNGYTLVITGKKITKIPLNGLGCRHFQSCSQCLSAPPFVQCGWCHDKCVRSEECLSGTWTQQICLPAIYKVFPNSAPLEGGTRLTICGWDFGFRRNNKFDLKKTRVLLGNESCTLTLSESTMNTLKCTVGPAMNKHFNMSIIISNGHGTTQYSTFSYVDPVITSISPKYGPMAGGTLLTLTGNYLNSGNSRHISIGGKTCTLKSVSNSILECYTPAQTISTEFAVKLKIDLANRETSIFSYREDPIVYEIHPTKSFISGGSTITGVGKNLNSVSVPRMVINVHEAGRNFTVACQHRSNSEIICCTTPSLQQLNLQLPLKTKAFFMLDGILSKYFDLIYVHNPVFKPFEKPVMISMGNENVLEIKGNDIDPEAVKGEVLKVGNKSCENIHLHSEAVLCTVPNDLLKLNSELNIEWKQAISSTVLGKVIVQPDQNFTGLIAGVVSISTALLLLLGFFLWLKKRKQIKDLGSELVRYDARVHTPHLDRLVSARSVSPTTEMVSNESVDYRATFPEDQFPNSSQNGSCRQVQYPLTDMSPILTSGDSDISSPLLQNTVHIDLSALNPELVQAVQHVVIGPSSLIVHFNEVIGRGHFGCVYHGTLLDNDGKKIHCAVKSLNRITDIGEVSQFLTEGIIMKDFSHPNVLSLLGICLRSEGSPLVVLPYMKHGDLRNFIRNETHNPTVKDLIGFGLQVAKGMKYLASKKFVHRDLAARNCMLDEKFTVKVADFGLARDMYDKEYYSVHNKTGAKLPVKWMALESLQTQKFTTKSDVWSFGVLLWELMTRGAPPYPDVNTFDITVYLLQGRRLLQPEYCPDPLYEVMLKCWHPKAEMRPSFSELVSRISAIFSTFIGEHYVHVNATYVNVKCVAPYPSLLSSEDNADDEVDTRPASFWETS
Procedure, shortened: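 Phospho-Met (panTyr) sandwich ELISA on lysates of PC-3 cells given 100 ng/mL HGF for 10 min after 1 h compound exposure (8-point curve, 0.3% DMSO) following 3 h serum starvation. Normalised to HGF-stimulated DMSO and reference-inhibitor wells; 4-parameter logistic IC50.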

| Compound | IC50 [1] [nM] | IC50 [2] [nM] | IC50 (Met) [nM] |
| --- | --- | --- | --- |
| COC(=O)c1ccc2c(Oc3ccc(NC(=O)C4(C(=O)Nc5ccc(F)cc5)CC4)cc3)ccnc2c1 [Compound 162, methyl 4-[4-[[1-[(4-fluorophenyl)carbamoyl]cyclopropanecarbonyl]amino]phenoxy]quinoline-7-carboxylate] | 10 to 100 | ≤ 10 | 100 to 300 |
| COc1cc2nccc(Oc3ccc(NC(=O)C4(C(=O)Nc5ccc(F)cc5)CC4)cc3)c2cc1-c1cccc(C#N)c1F [Compound 175, 1-N-[4-[6-(3-cyano-2-fluorophenyl)-7-methoxyquinolin-4-yl]oxyphenyl]-1-N′-(4-fluorophenyl)cyclopropane-1,1-dicarboxamide] | 10 to 100 | ≤ 10 | 10 to 100 |
| COc1cc2nccc(Oc3ccc(NC(=O)C4(C(=O)Nc5ccc(F)cc5)CC4)cc3)c2cc1-c1ccccn1 [Compound 176, 1-N′-(4-fluorophenyl)-1-N-[4-(7-methoxy-6-pyridin-2-ylquinolin-4-yl)oxyphenyl]cyclopropane-1,1-dicarboxamide] | 10 to 100 | ≤ 10 | 10 to 100 |
| COc1cc2nccc(Oc3ccc(NC(=O)C4(C(=O)Nc5ccc(F)cc5)CC4)cc3)c2cc1-c1ccc(C)o1 [Compound 180, 1-N′-(4-fluorophenyl)-1-N-[4-[7-methoxy-6-(5-methylfuran-2-yl)quinolin-4-yl]oxyphenyl]cyclopropane-1,1-dicarboxamide] | 10 to 100 | ≤ 10 | 10 to 100 |
| COc1cc2nccc(Oc3ccc(NC(=O)C4(C(=O)Nc5ccc(F)cc5)CC4)cc3)c2cc1-c1cnoc1 [Compound 183, 1-N′-(4-fluorophenyl)-1-N-[4-[7-methoxy-6-(1,2-oxazol-4-yl)quinolin-4-yl]oxyphenyl]cyclopropane-1,1-dicarboxamide] | ≤ 10 | ≤ 10 | 10 to 100 |
| COc1cc2nccc(Oc3ccc(NC(=O)C4(C(=O)Nc5ccc(F)cc5)CC4)cc3)c2cc1-c1c(C)noc1C [Compound 184, 1-N-[4-[6-(3,5-dimethyl-1,2-oxazol-4-yl)-7-methoxyquinolin-4-yl]oxyphenyl]-1-N′-(4-fluorophenyl)cyclopropane-1,1-dicarboxamide] | 10 to 100 | ≤ 10 | 10 to 100 |
| COc1cc2nccc(Oc3ccc(NC(=O)C4(C(=O)Nc5ccc(F)cc5)CC4)cc3)c2cc1-c1cn[nH]c1 [Compound 186, 1-N′-(4-fluorophenyl)-1-N-[4-[7-methoxy-6-(1H-pyrazol-4-yl)quinolin-4-yl]oxyphenyl]cyclopropane-1,1-dicarboxamide] | ≤ 10 | ≤ 10 | 10 to 100 |
| COc1cc2nccc(Oc3ccc(NC(=O)C4(C(=O)Nc5ccc(F)cc5)CC4)cc3)c2cc1C1CC1 [Compound 187, 1-N-[4-(6-cyclopropyl-7-methoxyquinolin-4-yl)oxyphenyl]-1-N′-(4-fluorophenyl)cyclopropane-1,1-dicarboxamide] | 10 to 100 | ≤ 10 | 10 to 100 |
| COc1cc2nccc(Oc3ccc(NC(=O)C4(C(=O)Nc5ccc(F)cc5)CC4)cc3)c2cc1-c1ccc[nH]1 [Compound 188, 1-N′-(4-fluorophenyl)-1-N-[4-[7-methoxy-6-(1H-pyrrol-2-yl)quinolin-4-yl]oxyphenyl]cyclopropane-1,1-dicarboxamide] | ≤ 10 | ≤ 10 | 10 to 100 |
| COc1cc2nccc(Oc3ccc(NC(=O)C4(C(=O)Nc5ccc(F)cc5)CC4)cc3)c2cc1C1(O)CN(C(=O)OC(C)(C)C)C1 [Compound 195, tert-butyl 3-[4-[4-[[1-[(4-fluorophenyl)carbamoyl]cyclopropanecarbonyl]amino]phenoxy]-7-methoxyquinolin-6-yl]-3-hydroxyazetidine-1-carboxylate] | 10 to 100 | ≤ 10 | 10 to 100 |
